Experimental data published in patent US12178882B2, “Alpha polyglutamated pemetrexed and uses thereof” (L.E.A.F. HOLDINGS GROUP LLC, priority 2016, dated 2024).

Tests used:
[1] = molecular target: T1, reduced folate carriers (RFCs) (Homo sapiens, UniProt P41440); conditions: higher than MTX; cited from earlier work
T1 sequence (P41440 1-591): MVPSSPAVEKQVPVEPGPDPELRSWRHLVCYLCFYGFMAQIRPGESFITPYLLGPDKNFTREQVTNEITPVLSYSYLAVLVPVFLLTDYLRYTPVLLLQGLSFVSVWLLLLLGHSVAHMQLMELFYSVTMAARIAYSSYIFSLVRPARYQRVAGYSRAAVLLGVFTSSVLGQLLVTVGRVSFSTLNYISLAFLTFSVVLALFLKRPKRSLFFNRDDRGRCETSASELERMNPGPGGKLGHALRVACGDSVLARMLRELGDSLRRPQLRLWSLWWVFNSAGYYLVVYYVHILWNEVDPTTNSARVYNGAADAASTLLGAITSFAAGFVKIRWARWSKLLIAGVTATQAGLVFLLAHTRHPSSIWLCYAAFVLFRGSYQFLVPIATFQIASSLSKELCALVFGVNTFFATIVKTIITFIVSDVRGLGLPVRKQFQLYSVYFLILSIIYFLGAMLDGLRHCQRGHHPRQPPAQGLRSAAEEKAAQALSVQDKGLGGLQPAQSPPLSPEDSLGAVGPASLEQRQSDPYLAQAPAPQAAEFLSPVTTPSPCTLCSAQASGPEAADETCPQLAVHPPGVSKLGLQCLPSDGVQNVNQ

AML12 liver cells = assay: Toxicity to AML12 liver cells; type: cell-based; conditions: all doses studied (16-128 nM), 48 hours, FIG. 16
Excerpt: (§1) Methodologies used for cell line AML12 (non-cancerous liver cells) and CCD841 (non-cancerous colon epithelial cells) are similar to the methods used for cancer cells.

[2] = system: CCD841 colon epithelium cells; assay: Toxicity to CCD841 colon epithelium cells; type: cell-based; conditions: all concentrations tested (16-128 nM), 48 hours, FIG. 17
Excerpt: as §1

Nc1nc2[nH]cc(CCc3ccc(C(=O)N[C@@H](CCC(=O)O)C(=O)O)cc3)c2c(=O)[nH]1 [pemetrexed]
Affinity of RFCs for PMX relative to that for MTX [1]: 2 fold
Reduction in the AML12 liver cell counts (AML12 liver cells): approximately 40%
Decrease in the number of CCD841 colon epithelium cells [2]: ≥ 50%
